Reference: the supplement of paper PMC11986102
± gives the standard deviation of the averaged measurements.

Legend:
Assay in all cases: OD600 after 10 h growth (baseline-subtracted); higher = more bacterial growth (less inhibition)
[1] = test system: Klebsiella pneumoniae MKP103
Protocol: (§1)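 Broth microdilution growth assay in Mueller Hinton broth, 100 µL in 96-well plates, inoculated 1:200 from OD600 0.1 overnight cultures by pinning, 37 °C with shaking at 800 rpm, 1:2 serial dilutions from 128 µg/mL (64 µg/mL for Ebastine). The read-out is OD600 after 10 h; curves were baseline-corrected by subtracting the minimum of the 2nd-4th measurements. Three biological replicates, with water and DMSO no-compound controls.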

[2] = test system: Escherichia coli CFT073 (UPEC)
Protocol: as §1

Escherichia coli IAI1 = test system: Escherichia coli IAI1
Protocol: as §1

[3] = test system: Staphylococcus aureus Newman
Protocol: as §1

[4] = test system: Pseudomonas aeruginosa PA14
Protocol: as §1

Cc1c(Cl)c(C)[n+]([O-])c(Cl)c1-c1noc(-c2cc(O)c(O)c([N+](=O)[O-])c2)n1 [Opicapone]
OD600 after 10 h growth
Settings	Escherichia coli IAI1	[1]	[2]	[3]	[4]
0.1 µg/mL	0.811 ± 0.035	0.664 ± 0.073	0.786 ± 0.066	1.07 ± 0.035	0.743 ± 0.039
0.2 µg/mL	0.855 ± 0.11	0.668 ± 0.068	0.788 ± 0.076	1.07 ± 0.051	0.743 ± 0.033
0.5 µg/mL	0.822 ± 0.043	0.669 ± 0.072	0.94 ± 0.31	1.07 ± 0.048	0.764 ± 0.009
1 µg/mL	0.815 ± 0.042	0.681 ± 0.055	0.787 ± 0.05	1.07 ± 0.024	0.829 ± 0.1
2 µg/mL	0.818 ± 0.049	0.744 ± 0.073	0.786 ± 0.07	1.09 ± 0.011	0.747 ± 0.027
4 µg/mL	0.802 ± 0.061	0.791 ± 0.15	0.872 ± 0.19	1.18 ± 0.15	0.81 ± 0.12
8 µg/mL	0.797 ± 0.066	0.839 ± 0.24	1.02 ± 0.28	1.07 ± 0.12	0.709 ± 0.021
16 µg/mL	0.798 ± 0.054	0.781 ± 0.14	0.787 ± 0.08	0.413 ± 0.022	0.677 ± 0.019
32 µg/mL	0.801 ± 0.03	0.682 ± 0.023	0.775 ± 0.081	0.371 ± 0.052	0.678 ± 0.024
64 µg/mL	0.792 ± 0.021	0.669 ± 0.029	0.796 ± 0.018	0.466 ± 0.084	0.658 ± 0.023
128 µg/mL	0.767 ± 0.054	0.632 ± 0.02	0.758 ± 0.0082	0.356 ± 0.018	0.603 ± 0.038

Cc1cn([C@H]2C[C@H](O)[C@@H](CO)O2)c(=O)[nH]c1=O [Thymidine]
OD600 after 10 h growth
Settings	Escherichia coli IAI1	[1]	[2]	[3]	[4]
0.1 µg/mL	0.814 ± 0.042	0.666 ± 0.071	0.783 ± 0.068	1.08 ± 0.031	0.756 ± 0.035
0.2 µg/mL	0.952 ± 0.22	0.669 ± 0.061	0.956 ± 0.32	1.07 ± 0.036	0.899 ± 0.22
0.5 µg/mL	0.803 ± 0.052	0.67 ± 0.065	0.788 ± 0.064	1.07 ± 0.03	0.749 ± 0.039
1 µg/mL	0.802 ± 0.057	0.666 ± 0.063	0.794 ± 0.056	1.22 ± 0.11	0.748 ± 0.033
2 µg/mL	0.81 ± 0.059	0.674 ± 0.044	0.891 ± 0.19	1.16 ± 0.13	0.758 ± 0.024
4 µg/mL	0.808 ± 0.056	0.69 ± 0.04	0.89 ± 0.18	1.39 ± 0.2	0.853 ± 0.16
8 µg/mL	0.805 ± 0.056	0.838 ± 0.21	0.932 ± 0.32	1.28 ± 0.2	0.748 ± 0.034
16 µg/mL	0.804 ± 0.045	0.773 ± 0.11	0.873 ± 0.2	1.23 ± 0.13	0.745 ± 0.031
32 µg/mL	0.792 ± 0.045	0.684 ± 0.034	0.804 ± 0.048	1.1 ± 0.014	0.738 ± 0.029
64 µg/mL	0.782 ± 0.028	0.672 ± 0.02	0.786 ± 0.025	1.09 ± 0.011	0.718 ± 0.03
128 µg/mL	0.772 ± 0.039	0.645 ± 0.028	0.772 ± 0.011	1.1 ± 0.033	0.645 ± 0.043

CC1=C(C)C(=O)C(CCCCCCCCCC[P+](c2ccccc2)(c2ccccc2)c2ccccc2)=CC1=O [Visomitin]
OD600 after 10 h growth
Settings	Escherichia coli IAI1	[1]	[2]	[3]	[4]
0.1 µg/mL	0.805 ± 0.051	0.672 ± 0.064	0.786 ± 0.05	1.08 ± 0.037	0.762 ± 0.034
0.2 µg/mL	0.808 ± 0.04	0.672 ± 0.066	0.787 ± 0.055	1.08 ± 0.038	0.757 ± 0.035
0.5 µg/mL	0.8 ± 0.05	0.676 ± 0.067	0.785 ± 0.049	1.09 ± 0.04	0.757 ± 0.05
1 µg/mL	0.848 ± 0.1	0.674 ± 0.06	0.785 ± 0.052	1.08 ± 0.039	0.754 ± 0.047
2 µg/mL	0.815 ± 0.023	0.679 ± 0.069	0.818 ± 0.019	0.0277 ± 0.016	0.856 ± 0.13
4 µg/mL	0.795 ± 0.042	0.686 ± 0.07	0.809 ± 0.009	0.0387 ± 0.03	0.821 ± 0.1
8 µg/mL	0.769 ± 0.045	0.697 ± 0.058	0.777 ± 0.025	0.0433 ± 0.042	0.733 ± 0.037
16 µg/mL	0.045 ± 0.03	0.7 ± 0.051	0.0113 ± 0.0047	0.0257 ± 0.018	0.717 ± 0.029
32 µg/mL	0.0307 ± 0.03	0.196 ± 0.068	0.007 ± 0.0056	0.0217 ± 0.0091	0.681 ± 0.039
64 µg/mL	0.032 ± 0.022	0.00967 ± 0.012	0.0133 ± 0.014	0.0133 ± 0.013	0.0773 ± 0.046
128 µg/mL	0.0327 ± 0.033	0.0183 ± 0.018	0.024 ± 0.017	0.025 ± 0.024	0.0423 ± 0.035
